Assay [1] relates to cellulase. Description: Effect of xylose oligomer chain length on Avicel glucan initial hydrolysis rate. The assay is classed as biochemical. The source says: FIG. 9 depicts the effect of xylose oligomer chain length on Avicel glucan initial hydrolysis rate at a cellulase loading of thirty FPU/g glucan and CBU to FPU activity ration of two.
Furthermore, these xylooligomers have been found in the liquor from pretreatment prior to enzymatic hydrolysis, with the amounts depending upon the type of pretreatment, substrate, and substrate loading. Furthermore, such xylooligomers can slow glucose and xylose release. […] In accordance with an aspect of the disclosure, 12.5 mg/ml (eighty mM xylose equivalent) of xylose, 6.6 mg/ml (forty-six mM xylose equivalent) and 16.6 mg/ml (one-hundred seventeen mM xylose equivalent) of xylobiose, and 6.6 mg/ml (forty-eight mM xylose equivalent) of xylotriose were added to two ml centrifuge tubes containing thirty mg of commercial grade cellulose in 1.5 ml of liquid at a cellulase loading of thirty FPU/g glucan, and initial hydrolysis rates were measured. Xylose alone at this concentration inhibited yields by about ten percent, but about half as much xylobiose, forty-six mM of xylose equivalent, reduced glucose release by eighteen percent. Furthermore, glucose release dropped by about thirty-two percent at a higher xylobiose loading of one-hundred seventeen mM of xylose equivalent. Adding almost half of the xylose concentration and about the same as the lower concentration of xylobiose, xylotriose (forty-eight mM xylose equivalent) reduced glucose release even more, by about twenty-four percent.

Assay [2] deals with cellulase. The experiment in a line: Hydrolysis of Avicel cellulose with added birch wood xylan, xylose and β-xylosidase. Conditions: xylose equivalent to 1% (w/v) xylan mixed with Avicel; 7.5 FPU/g glucan; 4 h rate. The format is biochemical. As to the method:
Avicel+xylan−1% (w/v) each, Avicel+xylose−xylose equivalent to 1% (w/v) xylan. b-xylosidase loading was 28 mg/g glucan. Error bars represent the standard deviation.
Hydrolysis of one percent (w/w) commercial grade cellulose with an equal mass of birch wood xylan [approximately eighty-six percent xylan] was performed in triplicate at a cellulase plus β-glucosidase loading of 16.1 mg/glucan. Hydrolysis was also performed at a similar cellulase loading but supplemented with β-xylosidase at a loading of 14 mg/g glucan. To evaluate the effect of xylose alone on cellulose hydrolysis, cellulose containing an equivalent amount of xylose (1.053*amount of xylan) was enzymatically hydrolyzed in parallel. Controlled experiments for cellulose hydrolysis without xylan, cellulose with β-xylosidase only, and a substrate blank containing cellulose plus xylan were run in parallel. Samples were collected four, twenty-four, forty-eight, and seventy-two hours after initiation of hydrolysis and analyzed for sugars. Liquids produced by seventy-two hours of hydrolysis of samples containing xylan were post hydrolyzed to determine the amount of xylooligomers as described herein.
Referring now to FIG. 5, an aspect of the disclosure is the addition of β-xylosidase to effect hydrolysis of cellulose. […]
The concentration of xylose in the hydrolyzate was measured to be 5.5 g/l. […]

Experimental findings from patent US20110201084A1, “ENZYMATIC HYDROLYSIS OF CELLULOSIC BIOMASS THROUGH ENHANCED REMOVAL OF OLIGOMERS” (THE REGENTS OF THE UNIVERSITY OF CALIFORNIA, priority 2008, published 2011) are described below.

For the compound `OC1OC[C@@H](O[C@@H]2OC[C@@H](O[C@@H]3OC[C@@H](O)[C@H](O)[C@H]3O)[C@H](O)[C@H]2O)[C@H](O)[C@H]1O` (some centres unmarked) [xylotriose], the “reduction of glucose release (Avicel initial hydrolysis)” value (from here on “reduction of glucose release”) in the assay with cellulase [1] (xylotriose 6.6 mg/ml (forty-eight mM xylose equivalent), thirty FPU/g glucan) is recorded as “about twenty-four”.
Take `OC1OC[C@@H](O[C@@H]2OC[C@@H](O)[C@H](O)[C@H]2O)[C@H](O)[C@H]1O` (some centres unmarked) [xylobiose]: the “reduction of glucose release” value in the assay with cellulase [1] (xylobiose 6.6 mg/ml (forty-six mM xylose equivalent), thirty FPU/g glucan) is on record as “eighteen”; in the assay on cellulase [1] (xylobiose 16.6 mg/ml (one-hundred seventeen mM xylose equivalent), thirty FPU/g glucan) it was “about thirty-two”.
Consider `O=C[C@H](O)[C@@H](O)[C@H](O)CO` [xylose], for which, in the assay with cellulase [1] (xylose 12.5 mg/ml (eighty mM xylose equivalent), cellulase thirty FPU/g glucan), the “reduction of glucose release” value is reported as “about ten”. Further, the “inhibition of enzyme action” value with cellulase [2] amounted to 12%.
